Test results published in patent US20150291598A1 (NOVARTIS AG, priority 2012, published 2015).
Read-outs that look alike come from different tables or passages of the source.

Tests used:
P. yoelii Sporozoite = assay: P. yoelii sporozoite invasion assay in HepG2-A16-CD81EGFP liver cells (immunofluorescence quantification of EEFs); format: cell-based; conditions: Plasmodium yoelii; HepG2-A16-CD81EGFP cells, 48 hours; read-out: EC50 (nM), inhibitory efficacy in delaying the proliferation of P. yoelii sporozoite in infected liver cells
From the text: Compounds of the invention can be assayed to measure their capacity to inhibit proliferation of parasites in liver cells. The proliferation is quantified by determine the number of infected cells by immunofluorescence.
Due to the difficulty of successfully infecting immortalized human liver cell lines with the human malaria sporozoites (liver-stage parasite), rodent malaria sporozoites from Plasmodium yoelii (17XNL) and P. berghei (ANKA) are the preferred surrogate. Sporozoites are obtained from Anopheles stephensi mosquitoes supplied by the New York University Insectary, which ships the malaria-infected mosquitoes 10-13 days following the ingestion of an infective blood meal.
A transgenic HepG2 cell line expressing the tetraspanin CD81 receptor (HepG2-A16-CD81^EGFP) is used to increase the infectivity rate of rodent-malaria sporozoites into human cells. HepG2-A16-CD81^EGFP cells are stably transformed to express a GFP-CD81 fusion protein. A continuous in vitro culture of this line was maintained at 37° C. in 4% CO2 in complete media (CM) which contains: DMEM (Invitrogen, Carlsbad, USA) supplemented with 10% FCS, 0.29 mg/ml glutamine, 100 units penicillin and 100 μg/ml streptomycin (SigmaAldrich, USA).
P. yoelii Sporozoite Invasion Assay
These plates are incubated at 37° C. with 4% CO2 overnight. Two hours prior to infection, 50 nl of compound dissolved in DMSO (0.1% final DMSO concentration per well) were transferred with a PinTool (GNF Systems) into the assay plates (10 μM final concentration). A 1:3 serial dilution of atovaquone (10 μM at the highest final concentration) and wells treated only with DMSO were used as positive and negative controls, respectively.
Freshly dissected salivary glands from infected mosquitoes were homogenized in a glass tissue grinder, filtered twice through Nylon cell strainers (40 μm pore size, BD Falcon) and counted using a hemocytometer. The assay plate with HepG2-A16-CD81^EGFP cells and compound were then infected with 8×10^3 sporozoites per well and the plates are subjected to a centrifugal force of 650×g to pellet the sporozoites onto the liver cell monolayer. The assay plate is incubated at 37° C. for 2 hours to permit sporozoite invasion, then the media is aspirated from the media plate, and replaced with 50 μl CM (containing a 5× concentration of penicillin/streptomycin; 500 units penicillin and 0.5 mg streptomycin per ml) per well. 50 nl of compound is re-introduced by PinTool and the assay plate incubated for 48 hours at 37° C. before quantification of infected cells by immunofluorescence.
Atovaquone and uninfected wells were used as controls on each plate. Two replicate plates are tested for each assay.
Stained EEFs were then quantified using the Opera Confocal High Content Screening System (PerkinElmer, Waltham, USA). Images were collected using a 20× objective lens (20×/0.45 NA, LWD Plan Fluor, Olympus) at a binning of 2, using a 365 nm Xeon arc lamp illumination to detect the Hoechst-labeled nuclei and 635 nm laser line to excite DyLight649-labeled parasites. The image resolution yielded was approximately 0.66 μm/pixel (˜0.43 μm 2/pixel). All images were analyzed using a custom Acapella™ (PerkinElmer) script parametrized for this assay. In brief, images from fields inside the well were first discarded as out-of focus when the intensity in the nuclear channel was too low. Then, HepG2-A16-CD81^EGFP cells were counted by detecting the nuclei labeled with Hoechst using the nuclei detection libraries available with Acapella™. Parasites were later segmented using the αPyHSP70 immuno-labeling signal, using a custom script library. Once the objects were segmented from the picture, morphological-based (e.g. size, roundness, etc) and intensity-based features were measured for each object detected in the image (i.e. nuclei and parasites). Infection ratio was set as the ratio between parasite number and number of nuclei counted in images considered as “in-focus”.

[1] = system: P. falciparum (NF54 or 3D7 strain); assay: Assay for P. falciparum proliferation in infected human blood cells (SYBR Green); format: cell-based, Plasmodium falciparum; conditions: Plasmodium falciparum, Erythrocyte
Outline: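 NF54 or 3D7 parasites in O+ human erythrocytes at 2.5% hematocrit and 0.3% parasitemia final, exposed to compounds 72 h at 37 °C under 93% N2/4% CO2/3% O2.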

[2] = 72 h, NF54 or 3D7 infected human erythrocytes, 72 hours, read-out: EC50 (nM), inhibitory efficacy in delaying P. falciparum proliferation in infected human blood cells

SMILES | EC50 (P. yoelii Sporozoite) [nM] | EC50 [1, 2] [nM] | EC50 ([1]; infected human red blood cells, read-out: EC50, P. falciparum Proliferation Assay) [nM]
COC(=O)Nc1ccc(-c2cnc3cnc(C(=O)N(C)c4ccc(C#N)cc4)cn23)cc1 [Compound 482, methyl N-(4-{6-[(4-cyanophenyl)(methyl)carbamoyl]imidazo[1,2-a]pyrazin-3-yl}phenyl)carbamate] | 64 | 37 | –
CN(C(=O)c1cn2c(-c3ccc(C(N)=O)cc3)cnc2cn1)c1ccc(Cl)cc1 [Compound 486, 3-(4-carbamoylphenyl)-N-(4-chlorophenyl)-N-methylimidazo[1,2-a]pyrazine-6-carboxamide] | 120 | 42 | < 50
CN(C(=O)c1cn2c(-c3ccc4c(cnn4C)c3)cnc2cn1)c1ccc(C#N)cc1 [Compound 487, N-(4-cyanophenyl)-N-methyl-3-(1-methyl-1H-indazol-5-yl)imidazo[1,2-a]pyrazine-6-carboxamide] | 2940 | 96 | –
Cc1ccc(N(C)C(=O)c2cn3c(-c4ccc(C(F)(F)F)cc4)cnc3cn2)nc1 [Compound 491, N-methyl-N-(5-methylpyridin-2-yl)-3-[4-(trifluoromethyl)phenyl]imidazo[1,2-a]pyrazine-6-carboxamide] | 1110 | 199 | –
